Patent publication US20090098049A1, “Targeting transducible molecules to specific cell types” (The Regents of the University of California, priority 2004, published 2009)
Non-standard residues stand in square brackets, D forms with d. No end group written: not given here.

Key:
[1] = tested on: TA3/St mammary carcinoma cells; assay: Peptide treatment of CXCR4 non-expressing TA3/St cells (cell cycle by flow cytometry); assay type: cell-based; settings: 5 μM peptide, 24 hours, DNA content by flow cytometry, FIG. 2B
Description: (§1) (a) Namalwa lymphoma cells were treated with 40 μM TATp53C′ or DV3-TATp53C′ peptide for 48 h. Cell viability was assessed by trypan blue exclusion. Data represents the mean and standard error from three independent experiments. (b) DV3-TATp53C′ and TATp53C′ peptides induce similar level of p53-dependent G1 cell cycle arrest in CXCR4 non-expressing TA3/St mammary carcinoma cells. Cells were treated with 5 μM peptide for 24 hours and analyzed for DNA content by flow cytometry. (c) DV3-TATp53C′, TATp53C′ and control DV3 peptide (30 μM) have no effect on CXCR4 non-expressing, p53-deficient H1299 lung adenocarcinoma cells. […] Cells were treated with indicated concentrations of cdk2 antagonists TAT-RxL or DV3-TAT-RxL peptides for 48 h. Cell viability was assessed by trypan blue exclusion. Data represents the mean and standard error from three independent experiments. […] Apoptosis was determined by <2N DNA content as measured by flow cytometry and DNA staining.
(§2) Cell Culture and Flow Cytometry. […] Short-term cell viability was assessed by counting Trypan blue excluding cells on a hemocytometer. For cell cycle analysis, peptide treated cells were analyzed by FACS with 10 μg/ml propidium iodide in 0.5% NP-40. DNA profiles were analyzed using a FACScan and CellQuest software (Becton Dickinson, San Jose, Calif.).

[2] = tested on: H1299 lung adenocarcinoma cells; assay: Peptide treatment of p53-deficient H1299 cells; assay type: cell-based, human; settings: 30 μM peptide, FIG. 2C
Description: as §1, §2

Namalwa lymphoma cells = assay: Mouse model of metastatic peritoneal lymphoma (survival); assay type: in vivo; settings: SCID mice, Namalwa cells i.p., 180 nmol peptide once a day for 12 days, FIG. 5
Description: FIG. 5. Targeted DV3-TATp53C′ peptide has enhanced ability to treat mouse model of aggressive, metastatic peritoneal lymphoma. Namalwa lymphoma cells were intraperitoneally injected into SCID mice and allowed to proliferate for 48 hours. Mice were then injected once a day for 12 days with vehicle control (n=10), or 180 nmol DV3-TATp53C′ peptide (n=11), non-targeted, parental TATp53C′ peptide (n=5), or control DV3-only peptide (n=5).

[3] = tested on: CXCR4-expressing Namalwa lymphoma cells; assay: Namalwa lymphoma cell killing (trypan blue exclusion; apoptosis by DNA content); assay type: cell-based, Human; settings: for cell viability / cell number (in words): 30 μM peptide, single peptides or domains in trans, FIG. 3A
Description: (a) Namalwa lymphoma cells were treated with 40 μM TATp53C′ or DV3-TATp53C′ peptide for 48 h. Cell viability was assessed by trypan blue exclusion. Data represents the mean and standard error from three independent experiments. […] Cells were treated with 5 μM peptide for 24 hours and analyzed for DNA content by flow cytometry. […] Cells were treated with indicated concentrations of cdk2 antagonists TAT-RxL or DV3-TAT-RxL peptides for 48 h. Cell viability was assessed by trypan blue exclusion. Data represents the mean and standard error from three independent experiments. (e) Namalwa lymphoma (CXCR4+) cells were treated with DV3-TATp53C′, TATp53C′ or DV3-TATp53MUT peptides for 24 hours. Apoptosis was determined by <2N DNA content as measured by flow cytometry and DNA staining.
Namalwa lymphoma cells were treated with 30 μM peptide for 48 h. Cell viability was assessed by trypan blue exclusion. Data represents the mean and standard error from three independent experiments. […] Cells were treated with 30 μM DV3-TATp53C′ or parental TATp53C′ peptide for 48 h in the presence or absence of a 200 μM excess of DV3 peptide. Cell viability was assessed by trypan blue exclusion. Data represents the mean and standard error from three independent experiments.
Cell Culture and Flow Cytometry. TA3/St, H1299 and 293T cells were maintained in DMEM plus 10% fetal bovine serum (FBS) and penicillin/streptomycin (P/S). Namalwa B cells (ATCC) were maintained in RPMI plus 10% FBS, P/S. All cells were maintained at 37° C. in 5% CO2. Short-term cell viability was assessed by counting Trypan blue excluding cells on a hemocytometer. For cell cycle analysis, peptide treated cells were analyzed by FACS with 10 μg/ml propidium iodide in 0.5% NP-40. DNA profiles were analyzed using a FACScan and CellQuest software (Becton Dickinson, San Jose, Calif.).

[4] = target: CXCR4 receptor on human Namalwa Burkitt's lymphoma cells (human) (UniProt P61073); assay: flow cytometry on Namalwa cells; inhibition of 12G5-PE binding to CXCR4
CXCR4 receptor = target: T1, CXCR4 receptor (Homo sapiens, UniProt P61073); assay: CXCR4 binding assay (inhibition of 12G5-PE anti-CXCR4 antibody binding, flow cytometry); settings: linked DV3 and TAT domains versus single domains, FIG. 1B
T1 construct: CXCR4 expressing Namalwa cells were washed 3 times with PBS/0.5% BSA and incubated on ice; endogenous in cells; host or cells: Namalwa B cells (human Burkitt's lymphoma, ATCC)
Description: (a) Sequences of peptides used in some embodiments. All peptides were synthesized using D-isomer residues, except for the TAT-RxL peptides. (b) Human Namalwa lymphoma cells that overexpress CXCR4 receptor were incubated with increasing concentrations of peptide, followed by fluorescent PE-conjugated anti-CXCR4 monoclonal antibody incubation, then analyzed for antibody binding to CXCR4 receptor (mean fluorescence) by flow cytometry. Graph plots relative fluorescence of cells with respect to cells treated with antibody only. Data represents the mean and standard error from three independent experiments.
CXCR4 binding assay. CXCR4 expressing Namalwa cells were washed 3 times with PBS/0.5% BSA and incubated on ice with phycoerythrin (PE)-labeled anti-CXCR4 monoclonal antibody (12G5-PE, R&D Systems, WI) and peptide. PE-labeled isotype matched antibody was used to control for non-specific cell surface binding. […]
DV3 Enhances the Affinity of TAT Peptides for CXCR4 Expressing Cells. […] Human Namalwa Burkitt's lymphoma cells overexpressing the CXCR4 receptor were treated with various peptides to block the CXCR4 receptor, then incubated with phycoerythrin (PE) conjugated anti-CXCR4 antibody and analyzed by flow cytometry.

CXCR4 receptor on human Namalwa Burkitt's lymphoma cells (human), sequence (P61073 whole entry, the tested form may be a part): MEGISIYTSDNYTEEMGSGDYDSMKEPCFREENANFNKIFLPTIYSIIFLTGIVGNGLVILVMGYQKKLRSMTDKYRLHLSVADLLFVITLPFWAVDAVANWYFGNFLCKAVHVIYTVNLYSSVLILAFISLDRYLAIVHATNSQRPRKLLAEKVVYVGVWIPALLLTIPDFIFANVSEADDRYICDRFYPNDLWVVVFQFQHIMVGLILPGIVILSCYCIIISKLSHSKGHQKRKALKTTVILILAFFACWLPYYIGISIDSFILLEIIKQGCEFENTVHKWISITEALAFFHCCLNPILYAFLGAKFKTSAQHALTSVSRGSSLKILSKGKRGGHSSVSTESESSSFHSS
T1 sequence (P61073 whole entry, the tested form may be a part): as above

Molecule: [dL]G[dA][dS][dW][dH][dR][dP][dD][dK]G[dR][dR][dR][dQ][dR][dR][dK][dK][dR]G[dK][dK][dH][dR][dS][dT][dS][dQ]G[dK][dK][dS][dK][dL][dH][dS][dS][dH][dA][dR][dS]G [DV3-TATp53C′]
- G1 cell cycle arrest [1]: induced a G1 arrest that was indistinguishable from treatment with parental TATp53C′ peptide
- effect on p53-deficient H1299 cells [2]: little to no effect
- median survival (Namalwa lymphoma cells): 41 days
- reduction of cell number ([3]; 40 μM peptide, 48 h, trypan blue exclusion, FIG. 2A): > 80%
- cell killing in presence of excess competing DV3 peptide ([3]; Namalwa cells, 30 μM peptide co-administered with 200 μM DV3 peptide, 48 h, FIG. 3B): reduced the potency of DV3-TATp53C′ peptide to levels similar to that of parental TATp53C′ peptide
- cell viability / cell number (in words) ([3]; Namalwa cells, 48 h): decreased viability to a significantly greater extent than treatment with parental TAT-p53C′ peptide
- cell number / cell killing (in words) ([3]; Namalwa cells, p53 peptides, FIG. 2A): enhanced cell killing

Molecule: DV3-TATp53C′ peptide
- IC50 [4]: < 10 nM

Molecule: DV3-TAT peptide
- IC50 [4]: < 10 nM
- fold increased affinity (against DV3 or TAT peptide alone) [4]: 100 fold

Molecule: CC(C)C[C@@H](N)C(=O)NCC(=O)N[C@H](C)C(=O)N[C@H](CO)C(=O)N[C@H](Cc1c[nH]c2ccccc12)C(=O)N[C@H](Cc1c[nH]cn1)C(=O)N[C@H](CCCNC(=N)N)C(=O)N1CCC[C@@H]1C(=O)N[C@H](CC(=O)O)C(=O)N[C@H](CCCCN)C(=O)NCC(=O)N[C@H](CCCNC(=N)N)C(=O)N[C@H](CCCNC(=N)N)C(=O)N[C@H](CCCNC(=N)N)C(=O)N[C@H](CCC(N)=O)C(=O)N[C@H](CCCNC(=N)N)C(=O)N[C@H](CCCNC(=N)N)C(=O)N[C@H](CCCCN)C(=O)N[C@H](CCCCN)C(=O)N[C@H](CCCNC(=N)N)C(=O)NCC(=O)O [DV3-TAT]
- cell viability / cell number (in words) ([3]; Namalwa cells, 48 h): minimal effects on cell number
- increased affinity for the CXCR4 receptor (CXCR4 receptor): ~100 fold

Molecule: [dL]G[dA][dS][dW][dH][dR][dP][dD][dK] [DV3 peptide (CXCR4 receptor ligand)]
- IC50 [4]: 1000 nM
